Measurements as given in patent US20220017468A1, “ISOQUINOLINE COMPOUNDS AND THEIR USE IN TREATING AhR IMBALANCE” (Dermavant Sciences GmbH, priority 2020, published 2022).
Several values for one entry are separate records, joined by “and”; a condition that tells them apart may be missing. Equal values may be shown once. Entries after “also recorded” stand apart in the source; their conditions may differ. Read-outs that look alike come from different tables or passages of the source.

Assays:
[1] = blood-to-plasma ratio and blood cell association, human; assay type: in vitro ADME
AhR [2] = biological target: T1, AhR (Homo sapiens, UniProt P35869); assay: CYP1A1-bla LS-180 AhR agonist assay; assay type: cell-based
T1 construct: LS-180 cells stably transfected with a CYP1A1 promoter-linked beta-lactamase gene reporter construct; endogenous in cells; host or cells: CYP1A1-bla LS-180 cells
T1 sequence (P35869 11-848): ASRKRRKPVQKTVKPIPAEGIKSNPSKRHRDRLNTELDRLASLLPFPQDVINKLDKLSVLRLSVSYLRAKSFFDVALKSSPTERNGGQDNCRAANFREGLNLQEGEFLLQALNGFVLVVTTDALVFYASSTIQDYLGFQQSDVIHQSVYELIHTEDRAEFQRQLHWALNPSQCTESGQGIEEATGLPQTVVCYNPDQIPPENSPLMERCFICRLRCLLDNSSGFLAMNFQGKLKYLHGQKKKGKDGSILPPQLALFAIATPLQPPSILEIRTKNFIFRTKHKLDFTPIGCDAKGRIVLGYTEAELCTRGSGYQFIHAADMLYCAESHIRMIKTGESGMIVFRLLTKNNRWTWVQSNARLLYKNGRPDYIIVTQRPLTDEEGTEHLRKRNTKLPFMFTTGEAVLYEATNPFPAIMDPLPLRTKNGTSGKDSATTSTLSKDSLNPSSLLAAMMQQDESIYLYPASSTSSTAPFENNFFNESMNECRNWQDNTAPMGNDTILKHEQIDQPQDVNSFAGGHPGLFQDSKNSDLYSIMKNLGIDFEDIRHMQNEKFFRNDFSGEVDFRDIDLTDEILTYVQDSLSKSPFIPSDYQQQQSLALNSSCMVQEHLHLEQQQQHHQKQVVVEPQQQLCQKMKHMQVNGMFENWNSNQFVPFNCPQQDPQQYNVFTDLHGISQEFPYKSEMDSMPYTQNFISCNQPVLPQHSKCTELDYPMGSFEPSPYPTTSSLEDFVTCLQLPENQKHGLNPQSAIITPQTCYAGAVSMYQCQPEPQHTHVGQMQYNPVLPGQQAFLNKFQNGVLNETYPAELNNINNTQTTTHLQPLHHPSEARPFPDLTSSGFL
Protocol: LS-180 cells stably transfected with a CYP1A1 promoter-linked beta-lactamase gene reporter construct (termed CYP1A1-bla LS-180 cells) were used to characterize the ability of compounds to activate AhR. In brief, AhR activity was measured using the LiveBLAzer assay kit which utilizes a beta lactamase (bla) reporter gene downstream of CYP1A1 promoter, which metabolizes its substrate to give a fluorescent readout. For the agonist assay, CYP1A1-bla LS-180 cells were treated with increasing concentrations of compound over a 100,000-fold concentration range.
CYP1A1-bla LS-180 cells in exponential growth phase were washed twice with DPBS then seeded into 96-well microplates (50,000 cells/well) and allowed to adhere. […] The LiveBLAzer FRET B/G β-lactamase substrate was added in the final hour of incubation and resulting blue/green fluorescence was measured using a 96-well microplate reader.
AhR activity was measured as a function of beta-lactamase expression using a fluorescence resonance energy transfer-based readout. TCDD and FICZ were used as controls to validate the system.

IL-17A = assay: CD4+ T cell IL17 assay; assay type: cell-based, human; conditions: for IC50: T-cell
Protocol: Therefore, compounds are evaluated for their ability to reduce IL-17 production from CD4+ T cells stimulated under Th17-skewing conditions. Cryopreserved human CD4^+ T cells (AllCells, LLC, Alameda, CA and Stemcell Technologies, Inc. Vancouver, Canada) were differentiated to the Th17 subtype by culturing for 5 days in CD3-coated tissue culture plates (2 μg/mL) in Iscove's modified Dulbecco's medium (IMDM) containing 10% HI-FBS, 55 μM 2-mercaptoethanol and soluble anti-CD28 (3 μg/mL) in the presence of a Th17 skewing cocktail, [IL-1β (10 ng/mL), IL-6 (30 ng/mL), TGFβ (0.5 ng/mL), IL-21 (10 ng/mL), IL-23 (10 ng/mL), anti-IFNγ (10 μg/mL) and anti-IL-4 (10 μg/mL)] in the presence or absence of serially diluted compounds. Secretion of IL-17 from polarized CD4+ T-cells was measured in the culture media using an MSD (Meso Scale Discovery) detection system following 5 day exposure toTh17 polarization reagents with and without compounds.

[3] = estimation of human plasma concentration following topical administration; conditions: for Estimated AUC24 h / Estimated Css: 70 kg
Protocol: The plasma clearance (CLhuman) was estimated from the in vitro and preclinical pharmacokinetic studies.
An estimated skin flux prediction was conducted, assuming a 2-hour lag time and receiving fluid levels obtained every two hours at the LLOQ level for 16 hours, leading to a calculated flux of 0.048 ng/cm^2/h.
Healthy skin is an effective protective barrier to most xenobiotics; therefore the relevance of a flux value derived from the ex vivo skin penetration assay, which uses healthy human skin from abdominoplasty surgeries, may not translate to what is observed following application onto unhealthy skin. […] Calculation of human systemic exposure with a 100-fold increase in flux has also been performed to account for the worst case estimation. A 10% body surface area (1800 cm^2) in human was used for this estimation. Therefore, for the purpose of safety margin estimation and considering the conditions explained herein, the estimated Css,human is 0.34 ng/mL with the corresponding AUCss, 24 h is 8.2 ng*h/mL. In clinical practice, topical treatment for atopical dermatitis can be up to 50% BSA (9000 cm2) and therefore corresponding estimated Css,human and AUCss, 24 h with 10-fold increase in flux is 0.17 ng/mL and 4.1 ng*h/mL.

AhR [4] = biological target: T1, AhR; assay: CYP1A1-bla LS-180 AhR antagonist assay; assay type: cell-based; conditions: competition of FICZ- or TCDD-induced AhR activation
Protocol: A similar assay was used to evaluate the antagonist capacity of compounds. CYP1A1-bla LS-180 cells in exponential growth phase were washed twice with DPBS then seeded into 96-well microplates (50,000 cells/well) and allowed to adhere. Either FICZ or TCDD was added as an agonist and prepared compounds (2× working concentrations in complete media) were added 2 hours later. Cells were incubated for ˜20 hrs, after which compounds were tested for their ability to compete FICZ- or TCDD-induced AhR activation as a means to evaluate potential allosteric or partial agonist activity. The LiveBLAzer FRET B/G β-lactamase substrate was added in the final hour of incubation and resulting blue/green fluorescence was measured using a 96-well microplate reader, as described above.

[5] = metabolic stability in hepatocytes, rat; assay type: in vitro ADME
[6] = metabolic stability in liver microsomes, dog; assay type: in vitro ADME
[7] = flux 0.48 (10-fold increase), dose area 9000 cm^2, clearance 6 ml/min/kg
[8] = flux 4.8 (100-fold increase), dose area 1800 cm^2, clearance 6 ml/min/kg

## CC(C)c1c(O)cc(-c2cc3ccccc3cn2)cc1O
[1]; 1 μM
  % Blood Cell Association Mean (% CV): 55.0 (2.39) %
  % Blood Cell Association Replicate: 53.9% and 56.4% and 54.6%
  Blood-to-plasma Ratio Replicate: 1.29 and 1.23
  Mean % Blood Stability: 107%
[1]; read-out: Blood-to-plasma Ratio Mean (% CV)
  blood plasma ratio at 1 μM: 1.24
[1]; read-out: Blood-to-plasma Ratio Replicate
  blood plasma ratio at 1 μM: 1.21
AhR [2]
  EC50: 15.8 nM
IL-17A; MSD-based readout of secreted IL-17A from Th17-polarized primary human CD4+ peripheral blood T cells, read-out: IL-17A pIC50 (converted)
  IC50: 3.98 nM
IL-17A; primary human peripheral blood CD4+ T-cells, read-out: IL-17A inhibition IC50
  IC50: 140 nM
IL-17A; Th17-skewing conditions, applied throughout culture
  IL-17A production: suppression of IL-17A; also recorded: reduces IL-17A production in a dose-dependent manner
[3]; allometric scaling with plasma protein binding correction
  lowest predicted human clearance: 6 mL/min/kg
[3]; assuming 2-hour lag time and receiving fluid levels at the LLOQ for 16 hours
  Topical Skin Flux (calculated): 0.048 ng/cm^2/h
[3]; [7]
  Estimated AUC24 h: 4.1 ng·h/mL
  Estimated Css: 0.17 ng/mL
[3]; [8]
  Estimated AUC24 h: 8.2 ng·h/mL
  Estimated Css: 0.34 ng/mL
AhR [4]
  AhR antagonist assay result: negative
[5]; rat
  in vitro-to-in vivo extrapolation (IVIVE) ratio: 0.45
[5]; rat hepatocytes, 0.5 μM
  CLint, hep: 44.4 mL/min/g liver
  half-life at 0.5 μM: 3.37 min
[5]; rat hepatocytes, 0.5 μM, read-out: Scaled CLint, hep
  CLint scaled at 0.5 μM: 1600 mL/min/kg
[6]; dog liver microsomes, 0.5 μM
  CLint, mic: 1.59 mL/min/g liver
[6]; dog liver microsomes, 0.5 μM, read-out: Scaled CLint, mic
  CLint scaled at 0.5 μM: 51.7 mL/min/kg
[6]; dog, microsomes
  half-life at 0.5 μM: 32.1 min
